The record followed here is patent US6362369B1, “Phthalic acid diamide derivatives fluorine-containing aniline compounds as starting material, agricultural and horticultural insecticides, and a method for application of the insecticides” (Nihon Nohyaku Co., Ltd., priority 1997, dated 2002).

One assay has as its system diamondback moth (Plutella xylostella). Briefly: Insecticidal effect on diamondback moth (Test Example 1). The class given is in vivo. Particulars: diamondback moth; judged by the criterion of Test Example 1. Here is the method:
Insecticidal effect on diamondback moth (Plutella xylostella) Adult diamondback moths were released and allowed to oviposit on a Chinese cabbage seedling. […] After air-drying, it was allowed to stand in a room thermostated at 25° C. Six days after the immersion, the hatched insects were counted. The mortality was calculated according to the following equation and the insecticidal effect was judged according to the criterion shown below. The test was carried out with triplicate groups of 10 insects. [table]
Turning to `Cc1cc(C(F)(F)C(F)(F)F)c(C)cc1NC(=O)c1cccc(I)c1C(=O)NC(C)(C)C` [compound 1611], the “Insecticidal effect (Test Example 1), judged from mortality” value (shortened to “Insecticidal effect … from mortality”) is reported as “A (100)”.

In the case of `CCCNC(=O)c1cccc(F)c1C(=O)Nc1ccc(C(F)(F)C(F)(F)F)cc1F` [compound 1513], the “Insecticidal effect … from mortality” value was “A (100)”.

With `Cc1cc(C(F)(F)C(F)(F)F)ccc1NC(=O)c1cccc(Cl)c1C(=O)NCC(O)c1ccccc1` (stereo not drawn) [compound 1476], the “Insecticidal effect … from mortality” value is given as “A (100)”.

For the molecule `Cc1cc(C(F)(F)C(F)(F)F)ccc1NC(=O)c1cccc(Cl)c1C(=O)N(C)Cc1ccccc1F` [compound 1579], the “Insecticidal effect … from mortality” value is given as “A (100)”.

Take `Cc1cc(OC(F)F)ccc1NC(=O)c1c(I)cccc1C(=O)NC1CC1` [compound 1453]: the “Insecticidal effect … from mortality” value is “A (100)”.

Still in this assay, the particulars now being: diamondback moth; judged by the mortality criterion of Test Example 1.
As for `CC(C)NC(=O)c1cccc(Cl)c1C(=O)Nc1cccc(Cl)c1Cl` [compound 208], the “Insecticidal effect, Test Example 1” value was “A (100)”.

In the case of `CC(C)NC(=O)c1c(Cl)cccc1C(=O)Nc1ccc(SCC(F)(F)F)cc1` [compound 101], the “Insecticidal effect, Test Example 1” value is listed as “A (100)”.

For `CCCCc1ccc(NC(=O)c2c(Cl)cccc2C(=O)NC(C)C)cc1` [compound 195], the “Insecticidal effect, Test Example 1” value is on record as “A (100)”.

For the molecule `CCNC(=O)c1ccccc1C(=O)Nc1ccc(C(F)(F)F)cc1` [compound 7], the “Insecticidal effect, Test Example 1” value is “A (100)”.

`CC(C)NC(=O)c1cccc(Cl)c1C(=O)Nc1cc(Cl)c(OC(F)F)c(Cl)c1` [compound 227]: the “Insecticidal effect, Test Example 1” value is given as “A (100)”.

Staying with this assay, now noted: diamondback moth; mortality judged by criterion of Test Example 1.
Take `Cc1cc(C(F)(F)C(F)(F)F)ccc1NC(=O)c1c(Cl)cccc1C(=O)NC(C)c1cccc(Cl)c1` (stereo not drawn) [compound 1365]: the “Insecticidal effect, Test Example 1” value is “A (100)”.

Take `Cc1cc(C(F)(F)C(F)(F)F)ccc1NC(=O)c1cccc(I)c1C(=O)N1CCC(C)CC1` [compound 1083]: the “Insecticidal effect, Test Example 1” value was “A (100)”.

As for `Cc1cc(OC(F)(F)F)ccc1NC(=O)c1cc(F)c(F)cc1C(=O)NC(C)(C)C` [compound 1288], the “Insecticidal effect, Test Example 1” value was “A (100)”.

As to `Cc1cc(C(F)(F)C(F)(F)F)ccc1NC(=O)c1cccc(Cl)c1C(=O)NCCOc1ccccc1Cl` [compound 1368], the “Insecticidal effect, Test Example 1” value is listed as “A (100)”.

On to `Cc1ccc(CNC(=O)c2cccc(Cl)c2C(=O)Nc2ccc(C(F)(F)C(F)(F)F)cc2C)cc1` [compound 1342], for which the “Insecticidal effect, Test Example 1” value is “A (100)”.

With `Cc1cc(C(F)(F)C(F)(F)F)ccc1NC(=O)c1cccc(Cl)c1C(=O)NC(CO)c1ccc(-c2ccccc2)cc1` (stereo not drawn) [compound 1412], the “Insecticidal effect, Test Example 1” value is on record as “A (100)”.

The assay is the same for the next values; noted with them: mortality judged according to the criterion shown in Test Example 1.
`C=CCNC(=O)c1c(C(=O)Nc2cc(Cl)ccc2C)cccc1[N+](=O)[O-]` [compound 866]: the “Insecticidal effect on diamondback moth (Test Example 1), judged grade” value (“Insecticidal effect on diamondback moth” below) is given as “D (79-50)”.

As for `CC(C)NC(=O)c1cccc(F)c1C(=O)Nc1ccc(SCC(F)(F)F)cc1` [compound 539], the “Insecticidal effect on diamondback moth” value was “A (100)”.

Consider `CC(C)NC(=O)c1cccc(Cl)c1C(=O)Nc1ccc(C=C(Cl)Cl)cc1` [compound 916], for which the “Insecticidal effect on diamondback moth” value is recorded as “A (100)”.

In the case of `CC(C)NC(=O)c1c(C(=O)Nc2ccc3c(c2)nc(C(F)(F)F)n3C)cccc1[N+](=O)[O-]` [compound 737], the “Insecticidal effect on diamondback moth” value is “A (100)”.

On to `CC(C)NC(=O)c1c(C(=O)Nc2ccc(Cl)c(C(F)(F)F)c2)cccc1[N+](=O)[O-]` [compound 678], for which the “Insecticidal effect on diamondback moth” value was “A (100)”.

In the case of `CCc1ccc(F)cc1NC(=O)c1cccc([N+](=O)[O-])c1C(=O)NC(C)C` [compound 677], the “Insecticidal effect on diamondback moth” value is listed as “A (100)”.

On to `CC(C)NC(=O)c1cccc(I)c1C(=O)Nc1ccc(OC(F)F)cc1C(F)(F)F` [compound 465], for which the “Insecticidal effect on diamondback moth” value is listed as “A (100)”.

Regarding `CC(C)NC(=O)c1c(C(=O)Nc2cccc(Br)c2)cccc1[N+](=O)[O-]` [compound 590], the “Insecticidal effect on diamondback moth” value was “A (100)”.
